Data reported in patent publication US7960376B2, “Benzo-fused heterocycles” (priority 2007, dated 2011).

Legend:
Format in all cases: cell-based
[1] = molecular target: human CB2 receptor (hCB2) (Homo sapiens, UniProt P34972); test: cell-based; details: intracellular cAMP, CHO-K1 cells, NKH-477 prestimulated, + agonist, − inverse agonist
[2] = molecular target: human CB1 receptor (hCB1) (Homo sapiens, UniProt P21554); test: cAMP assay (LANCE TR-FRET) in CHO-K1 cells expressing hCB1; details: intracellular cAMP, NKH-477 prestimulated, + agonist, − inverse agonist
[3] = molecular target: T1, rat CB2 receptor (rCB2) (Rattus norvegicus, UniProt Q9QZN9); test: cell-based; details: intracellular cAMP, CHO-K1 cells, NKH-477 prestimulated, + agonist, − inverse agonist
T1 sequence (Q9QZN9 1-360): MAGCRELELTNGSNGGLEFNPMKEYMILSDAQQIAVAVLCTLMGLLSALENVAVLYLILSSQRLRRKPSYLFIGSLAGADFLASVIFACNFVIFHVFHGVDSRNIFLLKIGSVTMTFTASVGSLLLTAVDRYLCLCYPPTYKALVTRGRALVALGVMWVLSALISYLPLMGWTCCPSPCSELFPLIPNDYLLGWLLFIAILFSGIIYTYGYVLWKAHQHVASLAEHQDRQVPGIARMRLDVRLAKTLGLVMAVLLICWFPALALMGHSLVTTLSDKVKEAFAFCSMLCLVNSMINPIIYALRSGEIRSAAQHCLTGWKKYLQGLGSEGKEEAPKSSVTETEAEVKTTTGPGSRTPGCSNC

human CB2 receptor (hCB2), sequence (P34972 whole entry): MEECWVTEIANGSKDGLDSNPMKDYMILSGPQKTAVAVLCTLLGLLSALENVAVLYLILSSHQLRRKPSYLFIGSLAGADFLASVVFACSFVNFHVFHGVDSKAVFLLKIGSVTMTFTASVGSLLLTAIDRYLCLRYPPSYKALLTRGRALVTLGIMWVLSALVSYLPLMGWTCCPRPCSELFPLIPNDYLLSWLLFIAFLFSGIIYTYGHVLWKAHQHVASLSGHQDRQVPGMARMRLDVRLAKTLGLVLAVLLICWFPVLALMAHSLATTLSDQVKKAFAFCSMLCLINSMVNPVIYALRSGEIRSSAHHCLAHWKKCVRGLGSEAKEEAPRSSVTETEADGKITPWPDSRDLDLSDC
human CB1 receptor (hCB1), sequence (P21554 whole entry): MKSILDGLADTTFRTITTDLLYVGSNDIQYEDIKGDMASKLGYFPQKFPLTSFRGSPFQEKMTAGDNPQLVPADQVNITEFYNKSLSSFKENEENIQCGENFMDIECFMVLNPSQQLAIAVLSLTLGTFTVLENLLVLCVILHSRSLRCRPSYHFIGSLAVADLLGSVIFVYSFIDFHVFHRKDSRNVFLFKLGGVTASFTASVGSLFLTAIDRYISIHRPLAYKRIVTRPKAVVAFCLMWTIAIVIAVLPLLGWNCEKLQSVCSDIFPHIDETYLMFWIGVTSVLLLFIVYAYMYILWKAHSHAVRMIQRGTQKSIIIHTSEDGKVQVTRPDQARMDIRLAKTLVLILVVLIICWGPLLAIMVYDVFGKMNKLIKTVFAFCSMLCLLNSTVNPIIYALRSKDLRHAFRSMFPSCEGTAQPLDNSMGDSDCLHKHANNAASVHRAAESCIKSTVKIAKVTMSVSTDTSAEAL

Compound	hCB2 EC50 range [1]	hCB1 EC50 range [2]	rCB2 EC50 range [3]	further results
CC(C)CNC(=O)c1ccc2c(c1)N(C(=O)c1ccc(Cl)cc1)CCS2 [Example 1, 4-(4-chlorobenzoyl)-N-isobutyl-3,4-dihydro-2H-benzo[b][1,4]thiazine-6-carboxamide]	−E	−E	–	–
CC(C)CNC(=O)c1ccc2c(c1)N(C(=O)c1ccccc1)CCS2 [Example 2, 4-benzoyl-N-isobutyl-3,4-dihydro-2H-benzo[b][1,4]thiazine-6-carboxamide]	−E	−E	−C	–
CC(C)CNC(=O)c1ccc2c(c1)N(C(=O)c1ccc(F)cc1)CCS2 [Example 3, 4-(4-fluorobenzoyl)-N-isobutyl-3,4-dihydro-2H-benzo[b][1,4] thiazine-6-carboxamide]	–	−E	−E	–
Cc1ccc(C(=O)N2CCSc3ccc(C(=O)NCC(C)C)cc32)cc1 [Example 4, N-isobutyl-4-(4-methylbenzoyl)-3,4-dihydro-2H-benzo[b][1,4] thiazine-6-carboxamide]	−E	−E	–	–
COc1ccc(C(=O)N2CCSc3ccc(C(=O)NCC(C)C)cc32)cc1 [Example 5, N-isobutyl-4-(4-meth-oxybenzoyl)-3,4-di-hydro-2H-benzo[b] [1,4]thiazine-6-carboxamide]	−E	−E	−E	–
CC(C)(C)NC(=O)c1ccc2c(c1)N(C(=O)c1ccc(F)cc1)CCS2 [Example 6, N-tert-butyl-4-(4-fluorobenzoyl)-3,4-dihydro-2H-benzo[b][1,4] thiazine-6-carboxamide]	–	−E	−E	–
COc1ccc(C(=O)N2CCSc3ccc(C(=O)NC(C)(C)C)cc32)cc1 [Example 7, N-tert-butyl-4-(4-methoxybenzoyl)-3,4-dihydro-2H-benzo[b] [1,4]thiazine-6-carboxamide]	–	−E	−E	–
Cc1ccc(C(=O)N2CCSc3ccc(C(=O)NC(C)(C)C)cc32)cc1 [Example 8, N-tert-butyl-4-(4-methylbenzoyl)-3,4-dihydro-2H-benzo[b][1,4]thiazine-6-carboxamide]	–	−E	–	–
O=C(NC1CCCC1)c1ccc2c(c1)N(C(=O)c1ccc(F)cc1)CCS2 [Example 12, N-cyclopentyl-4-(4-fluorobenzoyl)-3,4-dihydro-2H-benzo[b] [1,4]thiazine-6-carboxamide]	–	−E	−D	–
Cc1ccc(C(=O)N2CCSc3ccc(C(=O)NC4CCCC4)cc32)cc1 [Example 13, N-cyclopentyl-4-(4-methylbenzoyl)-3,4-dihydro-2H-benzo[b] [1,4]thiazine-6-carboxamide]	–	–	–	EC50 ([1]; read-out: hCB2 EC50 range): > 10 µM; EC50 ([3]; read-out: rCB2 EC50 range): > 10 µM; EC50 ([2]; read-out: hCB1 EC50 range): > 10 µM
CCC(=O)N1CCSc2ccc(C(=O)NC34CC5CC(CC(C5)C3)C4)cc21 [Example 39, N-(1-adamantyl)-4-propionyl-3,4-dihydro-2H-benzo[b][1,4]thiazine-6-carboxamide]	–	−E	−E	–
O=C(NC12CC3CC(CC(C3)C1)C2)c1ccc2c(c1)N(S(=O)(=O)c1ccc(F)cc1)CCS2 [Example 51, N-(1-adamantyl)-4-(4-fluorophenylsulfonyl)-3,4-dihydro-2H-benzo[b][1,4]thiazine-6-carboxamide]	–	+D	−C	–
CN(C)C(=O)c1ccc2c(c1)N(S(=O)(=O)c1ccc(F)cc1)CCS2 [Example 69, 4-(4-fluorophenylsulfonyl)-N,N-dimethyl-3,4-dihydro-2H-benzo[b][1,4]thiazine-6-carboxamide]	+E	–	+D	–
CCN(CC)C(=O)c1ccc2c(c1)N(S(=O)(=O)c1ccc(F)cc1)CCS2 [Example 70, N,N-diethyl-4-(4-fluorophenylsulfonyl)-3,4-dihydro-2H-benzo[b][1,4]thiazine-6-carboxamide]	+D	–	+C	–
CN(C)C(=O)c1ccc2c(c1)N(S(=O)(=O)c1ccc(C(F)(F)F)cc1)CCS2 [Example 72, N,N-dimethyl-4-(4-(trifluoromethyl)phenylsulfonyl)-3,4-dihydro-2H-benzo[b][1,4]thiazine-6-carboxamide]	+C	–	+C	–
O=C(c1ccc2c(c1)N(S(=O)(=O)c1ccc(C(F)(F)F)cc1)CCS2)N1CCCC1 [Example 74, pyrrolidin-1-yl(4-(4-(trifluoromethyl)phenylsulfonyl)-3,4-dihydro-2H-benzo[b][1,4]thiazin-6-yl)methanone]	+E	–	−C	–
O=C(c1ccc2c(c1)N(S(=O)(=O)c1ccc(C(F)(F)F)cc1)CCS2)N1CCOCC1 [Example 76, morpholino(4-(4-(trifluoromethyl)phenylsulfonyl)-3,4-dihydro-2H-benzo[b][1,4]thiazin-6-yl)methanone]	+D	–	+C	–
O=C(NNC(=O)c1ccc2c(c1)N(S(=O)(=O)c1ccc(F)cc1)CCS2)c1ccccc1 [Example 78, N′-benzoyl-4-(4-fluorophenylsulfonyl)-3,4-dihydro-2H-benzo[b][1,4]thiazine-6-carbohydrazide]	+E	–	+D	–
O=C(NNC(=O)c1ccc2c(c1)N(S(=O)(=O)c1ccc(C(F)(F)F)cc1)CCS2)c1ccccc1 [Example 79, N′-benzoyl-4-(4-(trifluoromethyl)phenylsulfonyl)-3,4-dihydro-2H-benzo[b][1,4]thiazine-6-carbohydrazide]	+D	–	+D	–
O=S(=O)(c1ccc(C(F)(F)F)cc1)N1CCSc2ccc(-c3nc(-c4ccccn4)no3)cc21 [Example 81, 3-(pyridin-2-yl)-5-(4-(4-(trifluoromethyl)phenylsulfonyl)-3,4-dihydro-2H-benzo[b][1,4]thiazin-6-yl)-1,2,4-oxadiazole]	+B	–	+A	–
CCc1noc(-c2ccc3c(c2)N(S(=O)(=O)c2ccccc2)CCS3)n1 [Example 86]	+B	–	+A	–
CC(C)CNC(=O)c1ccc2c(c1)N(S(=O)(=O)c1ccccc1)CCC(C)(C)S2 [Example 92, N-isobutyl-2,2-dimethyl-5-(phenyl-sulfonyl)-2,3,4,5-tetrahydrobenzo[b][1,4] thiazepine-7-carboxamide]	–	−E	−E	–
CC1(C)CCN(S(=O)(=O)c2ccccc2)c2cc(C(=O)N3CCCCC3)ccc2S1 [Example 93, (2,2-dimethyl-5-(phenylsulfonyl)-2,3,4,5-tetrahydro-benzo[b][1,4]thiazepin-7-yl)(piperidin-1-yl)methanone]	–	−E	+C	–
CC1(C)CCN(S(=O)(=O)c2ccccc2)c2cc(C(=O)N3CCOCC3)ccc2S1 [Example 94, (2,2-dimethyl-5-(phenylsulfonyl)-2,3,4,5-tetrahydro-benzo[b][1,4]thiazepin-7-yl)(morpholino)-methanone]	+E	–	+D	–
COC(=O)[C@@H](NC(=O)c1ccc2c(c1)N(S(=O)(=O)c1ccccc1)CCC(C)(C)S2)C(C)(C)C [Example 95, (S)-methyl 2-(2,2-dimethyl-5-(phenyl-sulfonyl)-2,3,4,5-tetrahydrobenzo[b][1,4]thiazepine-7-carboxamido)-3,3-dimethylbutanoate]	+D	−D	–	–
CC(C)(C)CNC(=O)c1ccc2c(c1)N(S(=O)(=O)c1ccccc1)CCC(C)(C)S2 [Example 96, 2,2-dimethyl-N-neo-pentyl-5-(phenyl-sulfonyl)-2,3,4,5-tetrahydrobenzo[b][1,4] thiazepine-7-carboxamide]	+D	−D	–	–
C[C@@H](NC(=O)c1ccc2c(c1)N(S(=O)(=O)c1ccccc1)CCC(C)(C)S2)C(C)(C)C [Example 97, (R)-N-(3,3-dimethyl-butan-2-yl)-2,2-dimethyl-5-(phenyl-sulfonyl)-2,3,4,5-tetrahydrobenzo[b][1,4] thiazepine-7-carboxamide]	+D	−D	–	–
CC1(C)CCN(S(=O)(=O)c2ccc(F)cc2)c2cc(C(=O)NCC3CCOCC3)ccc2S1 [Example 99, 5-(4-fluorophenyl-sulfonyl)-2,2-dimethyl-N-((tetrahydro-2H-pyran-4-yl)methyl)-2,3,4,5-tetrahydro-benzo[b][1,4]thiazepine-7-carboxamide]	–	−E	−C	–
Cc1nnc(-c2ccc3c(c2)N(S(=O)(=O)c2cn(C)cn2)CCS3)o1 [Example 106, 2-methyl-5-(4-(1-methyl-1H-imidazol-4-ylsulfonyl)-3,4-dihydro-2H-benzo[b][1,4]thiazin-6-yl)-1,3,4-oxadiazole]	+E	–	+D	–
O=S(=O)(c1ccc(C(F)(F)F)cc1)N1CCSc2ccc(-c3ncc(-c4ccccc4)[nH]3)cc21 [Example 107, 6-(5-phenyl-1H-imidazol-2-yl)-4-(4-(trifluoromethyl)phenylsulfonyl)-3,4-dihydro-2H-benzo[b][1,4]thiazine]	+C	–	+B	–
